Patent publication US7541366B2, “Pyrrolo[3,2-c]pyridine derivatives and processes for the preparation thereof” (YUHAN Corporation, priority 2004, dated 2009)
Counter-ions that a name gives are not always drawn.

What follows are molecules tested against T1, proton pump (H+/K+-ATPase) (Sus scrofa, UniProt P19156) (assay: Inhibitory effects on proton pump (H+/K+-ATPase) activity). Conditions: hog gastric vesicles, K+ stimulated H+/K+-ATPase activity, Pi at 620 nm, 30 minutes at 37° C.
T1 construct: used as an enzyme source of the in vitro enzyme reaction assay of proton pump; from tissue; host or cells: hog gastric fundic mucosa; membrane vesicles, lyophilized
T1 sequence (P19156 whole entry): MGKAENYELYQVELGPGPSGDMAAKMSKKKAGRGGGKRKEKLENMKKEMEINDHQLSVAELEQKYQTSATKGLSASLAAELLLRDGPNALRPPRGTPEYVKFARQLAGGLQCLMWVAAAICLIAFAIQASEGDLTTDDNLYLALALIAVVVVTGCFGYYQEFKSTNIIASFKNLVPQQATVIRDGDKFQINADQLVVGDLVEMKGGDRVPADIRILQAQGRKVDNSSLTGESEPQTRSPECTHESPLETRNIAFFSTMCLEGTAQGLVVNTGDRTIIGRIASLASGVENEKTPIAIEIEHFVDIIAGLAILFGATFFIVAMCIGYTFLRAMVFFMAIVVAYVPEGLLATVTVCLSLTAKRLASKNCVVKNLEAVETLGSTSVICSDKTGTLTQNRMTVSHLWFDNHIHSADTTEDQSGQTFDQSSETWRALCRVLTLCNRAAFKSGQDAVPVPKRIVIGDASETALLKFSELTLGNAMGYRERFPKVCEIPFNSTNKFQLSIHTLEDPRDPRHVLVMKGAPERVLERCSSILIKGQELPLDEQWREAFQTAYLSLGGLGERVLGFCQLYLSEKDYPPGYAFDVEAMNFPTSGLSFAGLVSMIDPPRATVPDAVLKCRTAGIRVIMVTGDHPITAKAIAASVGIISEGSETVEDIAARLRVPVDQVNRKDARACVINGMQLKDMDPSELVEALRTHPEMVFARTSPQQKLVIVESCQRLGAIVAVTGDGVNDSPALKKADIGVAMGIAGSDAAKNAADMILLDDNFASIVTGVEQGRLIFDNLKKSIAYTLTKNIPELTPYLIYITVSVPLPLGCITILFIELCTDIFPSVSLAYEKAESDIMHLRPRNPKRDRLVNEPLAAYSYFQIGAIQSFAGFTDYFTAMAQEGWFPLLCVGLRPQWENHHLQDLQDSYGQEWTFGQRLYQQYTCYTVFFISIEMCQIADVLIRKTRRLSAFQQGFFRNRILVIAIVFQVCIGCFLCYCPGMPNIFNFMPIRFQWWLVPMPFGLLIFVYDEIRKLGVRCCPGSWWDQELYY
T1 sequence (P18434 whole entry partner): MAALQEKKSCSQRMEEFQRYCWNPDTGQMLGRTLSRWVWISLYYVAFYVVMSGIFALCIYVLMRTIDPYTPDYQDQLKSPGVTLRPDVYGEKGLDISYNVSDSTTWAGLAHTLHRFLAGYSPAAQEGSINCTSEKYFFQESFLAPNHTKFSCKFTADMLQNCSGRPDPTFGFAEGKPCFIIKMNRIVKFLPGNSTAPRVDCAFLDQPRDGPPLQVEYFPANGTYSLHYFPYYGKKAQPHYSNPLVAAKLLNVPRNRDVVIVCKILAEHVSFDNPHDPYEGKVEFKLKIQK
Format: biochemical
Description: 1-1. Preparation of gastric proton pump vesicles
The hog fundic regions containing parietal and peptic cells were scraped with slide-glass. The collected cells were suspended in 10 ml of 0.25M sucrose buffer and homogenized using a tight-fitting Teflon-glass homogenizer. The homogenate was centrifuged for 35 min at 8,000 rpm and the pellet was discarded. The supernatant was further centrifuged for 75 min at 25,000 rpm. The resulting pellets were re-suspended in the sucrose buffer (10 ml), and then the suspension was laid onto discontinuous density gradients consisting of 0.25M sucrose buffer and isolation medium containing 9% Ficoll (w/w). After being centrifuged for 3 hours and 15 minutes at 100,000×g, the material at the interface of sucrose buffer and Ficoll solution was collected and then centrifuged for 40 minutes at 100,000×g. The resulting pellets were re-suspended in 1 ml of 5 mM Hepes/Tris buffer (pH 6.1). This material was lyophilized and stored at −70° C. and used as an enzyme source of the in vitro enzyme reaction assay of proton pump.
1-2. Measurement of inhibitory effects on proton pump (H^+/K^+-ATPase) activity
The inhibitory effects of the compounds of the present invention against proton pump activity were evaluated in 96-well plate. In this assay, the K^+specific H^+/K^+-ATPase activity was calculated based on the difference between the activity of H^+/K^30 -ATPase activity with K^30 and without K^30 ion. In 96-well plate, 1% dimethylsulfoxide (DMSO) in buffer was added to negative and positive control groups and the diluted compounds of the present invention in buffer were added to test group. All assays were performed in 100μl reaction volume at room temperature, and the hog gastric vesicle was kept in ice before use. At the beginning of the reaction, 10μl of reaction buffer containing 1% DMSO was added to the negative and positive control groups and to reaction buffer each concentration of compounds in the test group. Then lyophilized vesicle in 5mM Pipes/Tris buffer (pH 6.1) was pre-incubated in the presence of various concentrations of test compounds. After a 5 minute incubation, negative and positive buffers were respectively added to the previous reaction mixture. As the substrate, ATP was added to the reaction buffer, and incubated for 30 minutes at 37° C. Enzymatic activity was stopped by the addition of colorimetric reagent (2X malachite green, 1X ammonium molybdate, X polyvinyl alcohol, 2X H2O) and the amount of mono phosphate (Pi) in the reaction was measured at 620nm using the micro plate reader (Genios Pro, TECAN). The difference between the Pi production with K^+and without K^+is taken as K^+stimulated H^+/K^+-ATPase activity. The IC50s of test compounds were calculated from each % inhibition value of compounds using the method of Litchfield-Wilcoxon (J. Pharmacol. Exp. Ther. (1949) 96, 99).
Molecule `Cc1ccc(C)c(Cn2c(C)c(C)c3cncc(OCc4ccc(F)cc4)c32)c1` [Example 13, 1-(2,5-dimethylbenzyl)-7-(4-fluorobenzyloxy)-2,3-dimethyl-1H -pyrrolo[3,2-c]pyridine hydrochloride] has an IC50 of 1020 nM. `Cc1c(C)n(Cc2ccc(C(F)(F)F)cc2)c2c(OCc3ccc(F)cc3)cncc12` [Example 10, 7-(4-fluorobenzyloxy)-2,3-dimethyl-1-(4-trifluoromethylbenzyl)-1H -pyrrolo[3,2-c]pyridine hydrochloride] showed an IC50 of 340 nM. Molecule `COCCn1c(C)c(C)c2cncc(OCc3ccc(F)cc3)c21.Cl` [Example 17, 7-(4-fluorobenzyloxy)-1-(2-methoxyethyl)-2,3-dimethyl-1H-pyrrolo[3,2-c]pyridine hydrochloride] has an IC50 of 10 nM. `Cc1c(C)n(Cc2ccc3ccccc3c2)c2c(N3CCc4ccccc4C3)cncc12` [Example 32, 1-(2-naphthylmethyl)-7-(1,2,3,4-tetrahydroisoquinolin-2-yl)-2,3-dimethyl-1H -pyrrolo[3,2-c]pyridine hydrochloride] showed an IC50 of 290 nM. `Cc1c(C)n(Cc2cccc(C#N)c2)c2c(N3CCc4ccccc4C3)cncc12` [Example 41, 3-[7-(3,4-dihydro-1H-isoquinolin-2-yl)-2,3-dimethylpyrrolo[3,2-c]pyridin-1-ylmethyl]-benzonitrile hydrochloride] was tested, and the IC50 was 1810 nM. `Cc1c(C)n(CC(C)C)c2c(OCc3ccc(F)cc3)cncc12` [Example 11, 7-(4-fluorobenzyloxy)-1-isobutyl-2,3-dimethyl-1H-pyrrolo[3,2-c]pyridine hydrochloride] gave an IC50 of 10 nM. With `Cc1c(C)n(Cc2ccc(F)cc2)c2c(N3CCc4ccccc4C3)cncc12` [Example 28, 2-[1-(4-fluorobenzyl)-2,3-dimethyl-1H-pyrrolo[3,2-c]pyridin-7-yl]-1,2,3,4-tetrahydroisoquinoline hydrochloride] the IC50 was 190 nM. `Cc1c(C)n(Cc2ccc3c(c2)OCCO3)c2c(N3CCc4ccccc4C3)cncc12` [Example 30, 2-[1-(2,3-dihydrobenzo[1,4]dioxin-6-ylmethyl)-2,3-dimethyl-1H-pyrrolo[3,2-c]pyridin-7-yl]-1,2,3,4-tetrahydroisoquinoline hydrochloride] was tested, and the IC50 was 170 nM. With `Cc1c(C)n(CC2CC2)c2c(N3CCc4ccccc4C3)cncc12` [Example 39, 2-(1-cyclopropylmethyl-2,3-dimethyl-1H-pyrrolo[3,2-c]pyridin-7-yl)-1,2,3,4-tetrahydroisoquinoline hydrochloride] the IC50 was 240 nM. Work on `Cc1c(C)n(Cc2cccc(F)c2)c2c(OCc3ccc(F)cc3)cncc12` [Example 6, 1-(3-fluorobenzyl)-7-(4-fluorobenzyloxy)-2,3-dimethyl-1H -pyrrolo[3,2-c]pyridine hydrochloride] yielded an IC50 of 30 nM. Work on `Cc1c(C)n(Cc2ccccc2)c2c(N3CCc4ccccc4C3)cncc12` [Example 35, 1-benzyl-7-(1,2,3,4-tetrahydroisoquinolin-2-yl)-2,3-dimethyl-1H -pyrrolo[3,2-c]pyridine hydrochloride] yielded an IC50 of 60 nM. For `Cc1c(C)n(Cc2ccccc2F)c2c(OCc3ccc(F)cc3)cncc12` [Example 15, 1-(2-fluorobenzyl)-7-(4-fluorobenzyloxy)-2,3-dimethyl-1H -pyrrolo[3,2-c]pyridine hydrochloride], the IC50 was 190 nM. `COc1cccc(Cn2c(C)c(C)c3cncc(OCc4ccc(F)cc4)c32)c1` [Example 7, 7-(4-fluorobenzyloxy)-1-(3-methoxybenzyl)-2,3-dimethyl-1H -pyrrolo[3,2-c]pyridine hydrochloride] gave an IC50 of 60 nM. With `Cc1c(C)n(CC2CCC2)c2c(N3CCc4ccccc4C3)cncc12` [Example 37, 1-cyclobutylmethyl-7-(1,2,3,4-tetrahydroisoquinolin-2-yl)-2,3-dimethyl-1H -pyrrolo[3,2-c]pyridine hydrochloride] the IC50 was 750 nM. Work on `CCn1c(C)c(C)c2cncc(OCc3ccc(F)cc3)c21` [Example 3, 1-ethyl-7-(4-fluorobenzyloxy)-2,3-dimethyl-1H-pyrrolo[3,2-c]pyridine hydrochloride] yielded an IC50 of 40 nM. For `Cc1[nH]c2c(OCc3ccc(F)cc3)cncc2c1C` [Example 1, 7-(4-fluorobenzyloxy)-2,3-dimethyl-1H-pyrrolo[3,2-c]pyridine hydrochloride], the IC50 was 120 nM. With `COC(=O)c1ccc(Cn2c(C)c(C)c3cncc(N4CCc5ccccc5C4)c32)cc1` [Example 29, 1-(4-methoxycarbonylbenzyl)-7-(1,2,3,4-tetrahydroisoquinolin-2-yl)-2,3-dimethyl-1H-pyrrolo[3,2-c]pyridine hydrochloride] the IC50 was 320 nM. In the case of `Cc1c(C)n(CC(C)C)c2c(N3CCc4ccccc4C3)cncc12` [Example 36, 1-isobutyl-7-(1,2,3,4-tetrahydroisoquinolin-2-yl)-2,3-dimethyl-1H -pyrrolo[3,2-c]pyridine hydrochloride], the IC50 is reported as 310 nM. With `C=CCn1c(C)c(C)c2cncc(OCc3ccc(F)cc3)c21` [Example 5, 1-allyl-7-(4-fluorobenzyloxy)-2,3-dimethyl-1H-pyrrolo[3,2-c]pyridine hydrochloride] the IC50 was 280 nM. Molecule `Cc1c(C)n(CC2OCCO2)c2c(N3CCc4ccccc4C3)cncc12` [Example 34, 1-(1,3-dioxolan-2-ylmethyl)-7-(1,2,3,4-tetrahydroisoquinolin-2-yl)-2,3-dimethyl-1H -pyrrolo[3,2-c]pyridine hydrochloride] has an IC50 of 190 nM. With `C=COCCn1c(C)c(C)c2cncc(N3CCc4ccccc4C3)c21` [Example 33, 1-(2-vinyloxyethyl)-7-(1,2,3,4-tetrahydroisoquinolin-2-yl)-2,3-dimethyl-1H -pyrrolo[3,2-c]pyridine hydrochloride] the IC50 was 410 nM. For `Cc1c(C)n(Cc2ccccc2Cl)c2c(OCc3ccc(F)cc3)cncc12` [Example 14, 1-(2-chlorobenzyl)-7-(4-fluorobenzyloxy)-2,3-dimethyl-1H -pyrrolo[3,2-c]pyridine hydrochloride], the IC50 was 460 nM. In the case of `Cc1c(C)n(CC2CC2)c2c(OCc3ccc(F)cc3)cncc12` [Example 4, 1-cyclopropylmethyl-7-(4-fluorobenzyloxy)-2,3-dimethyl-1H -pyrrolo[3,2-c]pyridine hydrochloride], the IC50 is reported as 10 nM. Work on `Cc1[nH]c2c(N3CCc4ccccc4C3)cncc2c1C` [Example 27, 2-(2,3-dimethyl-1H-pyrrolo[3,2-c]pyridin-7-yl)-1,2,3,4-tetrahydroisoquinoline hydrochloride] yielded an IC50 of 460 nM. `CCn1c(C)c(C)c2cncc(N3CCc4ccccc4C3)c21` [Example 40, 2-(1-ethyl-2,3-dimethyl-1H-pyrrolo[3,2-c]pyridin-7-yl)-1,2,3,4-tetrahydroisoquinoline hydrochloride] gave an IC50 of 30 nM. Work on `Cc1ccc(Cn2c(C)c(C)c3cncc(OCc4ccc(F)cc4)c32)cc1` [Example 8, 7-(4-fluorobenzyloxy)-2,3-dimethyl-1-(4-methylbenzyl)-1H -pyrrolo[3,2-c]pyridine hydrochloride] yielded an IC50 of 60 nM. `Cc1c(C)n(Cc2ccc(F)cc2)c2c(OCc3ccc(F)cc3)cncc12` [Example 9, 1-(4-fluorobenzyl)-7-(4-fluorobenzyloxy)-2,3-dimethyl-1H -pyrrolo[3,2-c]pyridine hydrochloride] showed an IC50 of 50 nM. `COCCn1c(C)c(C)c2cncc(N3CCc4ccccc4C3)c21` [Example 31, 1-(2-methoxyethyl)-7-(1,2,3,4-tetrahydroisoquinolin-2-yl)-2,3-dimethyl-1H -pyrrolo[3,2-c]pyridine hydrochloride] gave an IC50 of 170 nM.

What follows are molecules tested on basal gastric acid secretion (assay: Inhibitory effects on basal gastric acid secretion in pylorus-ligated rats (Shay's rat model)). Conditions: oral, one hour before pylorus ligation, total acid output 5 hours after ligation, male SD rats.
Format: in vivo, Sprague Dawley (SD) rats
Description: Test Example 2. Inhibitory effects on basal gastric acid secretion in pylorus-ligated rats. Inhibitory effects of the compounds of the present invention on basal gastric acid secretion were performed according to Shay's rat model (Shay, H., et al., 1945, gastroenterology, 5, 43-61). Male Sprague Dawley (SD) rats (200±10 g body weight) were divided into 3 groups (n=5) and fasted for 24 hours with free access to water. Control group was orally administered with 0.5% methylcellulose alone and the other groups were orally administered with test compounds suspended in 0.5% methyl-cellulose solution at doses of 1, 3 and 10 mg/kg/5 ml one hour before pylorus ligation. Under ether anesthesia, the abdomens of the rats were incised and then the pylorus was ligated. 5 hours after ligation, the animals were sacrificed, and the gastric contents were collected. The collected contents were centrifuged at 1,000×g for 10 minutes to obtain the gastric juice. Total acid output was measured by 0.01N NaOH volume (ueq/ml) for automatic titration of the gastric juice to pH 7.0 and the ED50s of test compounds were calculated using the Litchfield-Wilcoxon method. % inhibitory activity was calculated from the following equation and the results are shown in Table 2. %inhibitory activity of test compound=(total acid output of control group−total acid output of the group treated with test compounds)/total acid output of control group X 100
Molecule `COCCn1c(C)c(C)c2cncc(OCc3ccc(F)cc3)c21.Cl` [Example 17, 7-(4-fluorobenzyloxy)-1-(2-methoxyethyl)-2,3-dimethyl-1H-pyrrolo[3,2-c]pyridine hydrochloride] has an ED50 of 3.3 mg/kg.
